Assay results: ChEMBL document CHEMBL6134898, “In Vitro ADME Profiling of PROTACs: Successes, Challenges, and Lessons Learned from Analysis of Clinical PROTACs from a Diverse Physicochemical Space” (J Med Chem, 2025)
In brackets after ≈: the same amount, converted by molar mass.

Legend:
[1] = Lipophilicity, LogD of compound by Chromatography; assay type: physicochemical
[2] = Apparent permeability across apical to basal side in human Caco-2 cells at 1 uM incubated for 120 mins by LC-MS/MS analysis; assay type: ADME, cell-based
[3] = Apparent permeability across apical to basal side in human Caco-2 cells at 1 uM incubated for 120 mins followed by ACN addition by LC-MS/MS analysis; assay type: ADME, cell-based
[4] = Protein binding in human plasma assessed as free fraction at 5 uM incubated for 18 hrs by LC-MS/MS analysis; assay type: ADME, cell-free
[5] = Protein binding in human plasma assessed as compound recovery at 5 uM incubated for 18 hrs by LC-MS/MS analysis; assay type: ADME, cell-free; conditions: read-out: Drug recovery
[6] = Stability in human plasma at 5 uM incubated for 18 hrs by LC-MS/MS analysis; assay type: ADME, cell-free; conditions: read-out: Stability
[7] = Protein binding in mouse plasma assessed as free fraction at 5 uM incubated for 18 hrs by LC-MS/MS analysis; assay type: ADME, cell-free
[8] = Protein binding in rat plasma assessed as free fraction at 5 uM incubated for 18 hrs by LC-MS/MS analysis; assay type: ADME, cell-free
[9] = Protein binding in dog plasma assessed as free fraction at 5 uM incubated for 18 hrs by LC-MS/MS analysis; assay type: ADME, cell-free, Canis lupus familiaris
[10] = Protein binding in monkey plasma assessed as free fraction at 5 uM incubated for 18 hrs by LC-MS/MS analysis; assay type: ADME, cell-free, Macaca mulatta; conditions: rhesus monkey
[11] = Protein binding in rat hepatocytes assessed as free fraction at 5 uM incubated for 18 hrs by LC-MS/MS analysis; assay type: ADME, cell-based, Hepatocyte
[12] = Intrinsic clearance in human hepatocytes measured per million cells at 1 uM measured for 0.5 to 120 mins by LC-MS/MS analysis; assay type: ADME, cell-based, Hepatocyte; conditions: time 0.5-120 min, read-out: CLH
[13] = Intrinsic clearance in mouse hepatocytes measured per million cells at 1 uM measured for 0.5 to 120 mins by LC-MS/MS analysis; assay type: ADME, cell-based, Hepatocyte; conditions: time 0.5-120 min, read-out: CLH
[14] = Intrinsic clearance in rat hepatocytes measured per million cells at 1 uM measured for 0.5 to 120 mins by LC-MS/MS analysis; assay type: ADME, cell-based, Hepatocyte; conditions: time 0.5-120 min, read-out: CLH
[15] = Intrinsic clearance in dog hepatocytes measured per million cells at 1 uM measured for 0.5 to 120 mins by LC-MS/MS analysis; assay type: ADME, cell-based, Canis lupus familiaris, Hepatocyte; conditions: time 0.5-120 min, read-out: CLH
[16] = Intrinsic clearance in monkey hepatocytes measured per million cells at 1 uM measured for 0.5 to 120 mins by LC-MS/MS analysis; assay type: ADME, cell-based, Macaca mulatta, Hepatocyte; conditions: rhesus monkey, time 0.5-120 min, read-out: CLH
[17] = Blood to plasma partitioning ratio in human at 10 uM incubated for 30 mins by LC-MS/MS analysis; assay type: ADME, cell-free; conditions: whole blood
[18] = Blood to plasma partitioning ratio in rat at 10 uM incubated for 30 mins by LC-MS/MS analysis; assay type: ADME, cell-free; conditions: whole blood
[19] = Blood to plasma partitioning ratio in dog at 10 uM incubated for 30 mins by LC-MS/MS analysis; assay type: ADME, cell-free, Canis lupus familiaris; conditions: whole blood
[20] = Solubility of compound in SGF at pH 1.2 measured after 24 hrs by UPLC analysis; assay type: physicochemical
[21] = Solubility of compound in FaSSIF at pH 6.5 measured after 24 hrs by UPLC analysis; assay type: physicochemical
[22] = Solubility of compound in FeSSIF at pH 5 measured after 24 hrs by UPLC analysis; assay type: physicochemical

| Compound | chromatographic logD [1] | Papp A→B at 2 h, 1 µM [2] | Papp A→B at 2 h, 1 µM [3] | fraction unbound at 18 h, 5 µM [4] | recovery at 18 h, 5 µM [5] | remaining at 18 h, 5 µM [6] | fraction unbound at 18 h, 5 µM [7] | fraction unbound at 18 h, 5 µM [8] | fraction unbound at 18 h, 5 µM [9] | fraction unbound at 18 h, 5 µM [10] | fraction unbound at 18 h, 5 µM [11] | hepatocyte CLint at 1 µM [12] | hepatocyte CLint at 1 µM [13] | hepatocyte CLint at 1 µM [14] | hepatocyte CLint at 1 µM [15] | hepatocyte CLint at 1 µM [16] | blood plasma ratio at 0.5 h, 10 µM [17] | blood plasma ratio at 0.5 h, 10 µM [18] | blood plasma ratio at 0.5 h, 10 µM [19] | solubility at 24 h [20] | other results |
| --- | --- | --- | --- | --- | --- | --- | --- | --- | --- | --- | --- | --- | --- | --- | --- | --- | --- | --- | --- | --- | --- |
| COc1cc(-c2cn(C)c(=O)c3cnc(N4CCC4)cc23)cc(OC)c1CN1CCC(CN2CCC3(CC2)CN(c2ccc4c(c2)C(=O)N([C@H]2CCC(=O)NC2=O)C4)C3)CC1 | 1.9 | < 0.1 ×10⁻⁶ cm/s | 0.1 ×10⁻⁶ cm/s | 0.29 | 65% | 84% | 0.232 | 0.265 | 0.41 | 0.427 | 0.35 | < 1 µL/min/1e6 cells | 5 µL/min/1e6 cells | < 1 µL/min/1e6 cells | 5 µL/min/1e6 cells | 3 µL/min/1e6 cells | 2.7 | 1.3 | 2.4 |  |  |
| NC(=O)c1ncc(N2CCCCC2)nc1Nc1ccc(C2CCN(C[C@@H]3CCN(c4ccc5c(c4)C(=O)N(C4CCC(=O)NC4=O)C5=O)C3)CC2)cc1 (stereo partly drawn) | 5.1 | < 0.1 ×10⁻⁶ cm/s | < 0.1 ×10⁻⁶ cm/s | < 0.004 | 90% | 78% | < 0.001 | 0.001 | < 0.001 | < 0.002 | 0.003 | < 1 µL/min/1e6 cells | 8 µL/min/1e6 cells | 5 µL/min/1e6 cells | 4 µL/min/1e6 cells | 6 µL/min/1e6 cells | 0.8 | 0.6 | 0.5 |  |  |
| Cn1c(=O)n([C@H]2CCC(=O)NC2=O)c2cccc(C#CCOC3CCN(C[C@H]4CC[C@H](n5cc(NC(=O)c6cnn7ccc(N8C[C@H]9C[C@@H]8CO9)nc67)c(C(F)F)n5)CC4)CC3)c21 | 2.4 | 2.4 ×10⁻⁶ cm/s | 5.3 ×10⁻⁶ cm/s | 0.022 | 56% | 68% | 0.008 |  | 0.026 | 0.035 | 0.069 | 3 µL/min/1e6 cells | 11 µL/min/1e6 cells | 11 µL/min/1e6 cells | 4 µL/min/1e6 cells | 10 µL/min/1e6 cells |  |  |  | 4.1 µg/mL (≈ 4.73 µM) | solubility at 24 h [21]: 1.6 µg/mL (≈ 1.85 µM); solubility at 24 h [22]: 33 µg/mL (≈ 38.1 µM) |
| CNC(=O)COc1cc2cc(Nc3nc(N4CCC(O[C@H]5C[C@H](N6CCC(c7ccc8c(c7F)CN(C7CCC(=O)NC7=O)C8=O)CC6)C5)CC4)ncc3Cl)ccc2n(C(C)C)c1=O (stereo partly drawn) | 3.7 | < 0.3 ×10⁻⁶ cm/s | 1.2 ×10⁻⁶ cm/s | < 0.007 | 43% | 7% | 0.005 | 0.014 | 0.002 | 0.007 | 0.016 | 3 µL/min/1e6 cells | 5 µL/min/1e6 cells | 5 µL/min/1e6 cells | 8 µL/min/1e6 cells | 10 µL/min/1e6 cells | 0.8 | 1.1 | 0.7 |  |  |
| N#Cc1ccc(O[C@H]2CC[C@H](NC(=O)c3ccc(N4CCC(CN5CCN(c6cc7c(cc6F)C(=O)N([C@H]6CCC(=O)NC6=O)C7=O)CC5)CC4)nn3)CC2)cc1Cl | 5.1 | < 0.1 ×10⁻⁶ cm/s | 0.1 ×10⁻⁶ cm/s | < 0.001 | 14% | 1% | < 0.001 |  |  |  | 0.008 | 2 µL/min/1e6 cells | 3 µL/min/1e6 cells | < 1 µL/min/1e6 cells | < 1 µL/min/1e6 cells | 5 µL/min/1e6 cells | 0.7 | 0.7 | 0.6 | 230 µg/mL (≈ 283 µM) | solubility at 24 h [21]: 1.6 µg/mL (≈ 1.97 µM); solubility at 24 h [22]: 192 µg/mL (≈ 236 µM) |
| CCc1cc(N2C(=S)N(c3ccc(C#N)c(C(F)(F)F)c3)C(=O)C2(C)C)ccc1OCCN1CCN(CC(=O)Nc2cccc(NC3CCC(=O)NC3=O)c2)[C@H](C)C1 (stereo partly drawn) | 5.2 | < 0.3 ×10⁻⁶ cm/s | 1.2 ×10⁻⁶ cm/s | < 0.001 | 82% | 72% |  | 0.003 | < 0.001 | 0.003 | < 0.001 | 3 µL/min/1e6 cells | 10 µL/min/1e6 cells | 11 µL/min/1e6 cells | ≤ 1 µL/min/1e6 cells | 5 µL/min/1e6 cells | 0.6 | 0.7 | 0.6 | 16 µg/mL (≈ 19.5 µM) | solubility at 24 h [21]: 0.3 µg/mL (≈ 0.366 µM); solubility at 24 h [22]: 293 µg/mL (≈ 358 µM) |
| Cc1ncsc1-c1ccc([C@H](C)NC(=O)[C@@H]2C[C@@H](O)CN2C(=O)[C@@H](NC(=O)CCCCCC(=O)N2CCN(CC[C@H](CSc3ccccc3)Nc3ccc(S(=O)(=O)NC(=O)c4ccc(N5CCN(CC6=C(c7ccc(Cl)cc7)CCC(C)(C)C6)CC5)cc4)cc3S(=O)(=O)C(F)(F)F)CC2)C(C)(C)C)cc1 [DT-2216] | 7.3 |  |  | < 0.003 | 91% | 92% |  |  |  |  | < 0.001 | 3 µL/min/1e6 cells | < 1 µL/min/1e6 cells | 3 µL/min/1e6 cells | < 1 µL/min/1e6 cells | ≤ 1 µL/min/1e6 cells | 0.9 | 0.7 | 0.8 |  |  |
| COc1cc(O[C@H]2C(C)(C)[C@H](NC(=O)c3ccc(N4CCC(CN5CCN(c6ccc(C(=O)N[C@H]7CCC(=O)NC7=O)c(F)c6)CC5)CC4)cc3)C2(C)C)ccc1C#N [LUXDEGALUTAMIDE] | 5.3 | < 0.1 ×10⁻⁶ cm/s | 0.3 ×10⁻⁶ cm/s | < 0.004 | 68% | 74% | 0.002 | 0.003 | 0.003 |  | 0.01 | < 1 µL/min/1e6 cells | 4 µL/min/1e6 cells | 2 µL/min/1e6 cells | < 1 µL/min/1e6 cells | 4 µL/min/1e6 cells | 0.5 | 0.7 | 0.8 | 188 µg/mL (≈ 233 µM) | solubility at 24 h [21]: 0.4 µg/mL (≈ 0.495 µM); solubility at 24 h [22]: 3.8 µg/mL (≈ 4.7 µM) |
| CN1CCN([C@@H]2CCCN(c3cnc(C(N)=O)c(Nc4ccc(C5CCN(CC6CCN(c7ccc(C(=O)N[C@H]8CCC(=O)NC8=O)nc7)CC6)CC5)cc4)n3)C2)C1=O [NX-5948] | 2.2 | 2.8 ×10⁻⁶ cm/s | 8.7 ×10⁻⁶ cm/s | 0.024 | 40% | 43% | 0.024 | 0.073 | 0.067 | 0.094 | 0.178 | 5 µL/min/1e6 cells | 4 µL/min/1e6 cells | 3 µL/min/1e6 cells | 3 µL/min/1e6 cells | 16 µL/min/1e6 cells | 1 | 1.1 | 2.6 | 559 µg/mL (≈ 693 µM) | solubility at 24 h [21]: 2.5 µg/mL (≈ 3.1 µM); solubility at 24 h [22]: 51 µg/mL (≈ 63.2 µM) |
| O=C1CC[C@H](N2Cc3cc(N4CCN(CC5CCN(c6ccc([C@@H]7c8ccc(O)cc8CC[C@@H]7c7ccccc7)cc6)CC5)CC4)ccc3C2=O)C(=O)N1 [VEPDEGESTRANT] | 5.7 | < 0.1 ×10⁻⁶ cm/s | < 0.1 ×10⁻⁶ cm/s | < 0.003 | 77% | 77% | < 0.001 | < 0.001 | < 0.001 | < 0.002 | < 0.001 | 3 µL/min/1e6 cells | 23 µL/min/1e6 cells | 9 µL/min/1e6 cells | 3 µL/min/1e6 cells | 5 µL/min/1e6 cells | 0.7 | 0.6 | 0.5 | 230 µg/mL (≈ 318 µM) | solubility at 24 h [21]: 2.6 µg/mL (≈ 3.59 µM); solubility at 24 h [22]: 274 µg/mL (≈ 378 µM) |
